In one data set the test system is HBV genotype C. Description: Serum HBV DNA in HBV-infected PXB mice. It counts as in vivo, hepatitis B virus. To be noted: for serum HBV DNA levels: HBV-infected PXB mice, group mean, assay limit 4×10^4 copies/mL serum. On the procedure: Target volume of blood was collected from all surviving animals under isoflurane anesthesia via the retro-orbital plexus/sinus using Intramedic™ Polyethylene Tubing at each time point. Two microliters (2 μL) from the collected blood were used for human albumin measurements. The remaining blood was centrifuged to separate serum to be used for analyzing the indicated biomarkers. Blood samples were collected according to Table 8.
The individual blood samples of the animals were left at room temperature for at least 5 minutes to coagulate and then centrifuged at 13200×g, 4° C. for 3 minutes to obtain serum. The serum was divided into separate labeled microtubes and stored at −80° C. until analysis.
Real-time PCR detection was used to measure the serum HBV DNA concentration using the KUBIX HBV qPCR Kit (KUBIX Inc.) and CFX96 Touch™ Real-Time PCR Detection System (Bio-Rad Laboratories, Inc., Hercules, Calif., USA). Ten microliters (10 μL) of the HBV 2×PCR Solution were added into 10 μL of the heated sample. The initial activation was conducted at 95° C. for 2 minutes. Subsequent PCR amplification consisted of 45 cycles of denaturation at 95° C. for 5 seconds and annealing and extension at 54° C. for 30 seconds per cycle in a CFX96 Touch™ Real-Time PCR Detection System. The average serum HBV DNA level was calculated from the values of the two separate wells.
The lowest quantification limit of this assay was 4×10^4 copies/mL serum.

Data set [1] can be described thus: XTT cell toxicity in primary human hepatocytes. Format: cell-based. The settings on record: human, primary human hepatocytes, read-out: TC50. On the procedure: (§1) Multiplicity of Infection (MOI) is defined as the number of HBV genome equivalents, as determined by the qPCR quantitation, added per cell in the respective growth format. The overnight media was removed from the cells and replaced with 190 μL of new, serum-free HI media/4% PEG8000 and 10 μL of the diluted virus stock (HepG2 AD38 genotype D) for a MOI of 500. Medium alone was added to the cells containing compound for the parallel cytotoxicity evaluation. After 18 hours of virus infection, the cells were gently washed five times with DPBS, followed by a new addition of 200 μL HI media containing compounds on day 1, day 4 and day 7 post-infection. In one set of experiments (Study #01), the effect of giving compound 18 h prior to infection, versus 18 h post-infection was studied. The supernatant removed from the cytotoxicity plates at each medium change was stored at −20° C. for shipment to the client. The supernatant was collected at 10 days post infection and stored at −20° C. for total extracellular HBV DNA copy number to be quantitatively determined by qPCR. Cell viability was measured by XTT tetrazolium dye at day 10 for the cytotoxicity plates.
(§2) Following incubation at 37° C. in a 5% CO2 incubator for ten days, the test plates were stained with the tetrazolium dye XTT (2,3-bis(2-methoxy-4-nitro-5-sulfophenyl}-5-[(phenylamino)carbonyl]-2H-tetrazolium hydroxide). XTT-tetrazolium was metabolized by the mitochondrial enzymes of metabolically active cells to a soluble formazan product. XTT solution was prepared daily as a stock of 1 mg/mL in RPMI1640. Phenazine methosulfate (PMS) solution was prepared at 0.15 mg/mL in PBS and stored in the dark at −20° C.
(§3) XTT/PMS stock was prepared immediately before use by adding 40 μL of PMS per mL of XTT solution. Fifty microliters of XTT/PMS were added to each well of the plate and the plate was re-incubated for 4 hours at 37° C. Plates were sealed with adhesive plate sealers and shaken gently or inverted several times to mix the soluble formazan product and the plate was read spectrophotometrically at 450/650 nm with a Molecular Devices Vmax plate reader.
(§4) Each concentration of inhibitor and controls were analyzed in triplicate for HBV DNA copies and for cellular toxicity, respectively. From control wells without inhibitor, the mean of these three replicates was calculated and the HBV DNA mean was set to 100% viral control and the XTT mean was set to 100% cell viability. The effect of compound was then expressed as % of viral control and % cell viability, respectively.

Data set [2] relates to Primary Human Hepatocytes. As to the kind of experiment: XTT cell toxicity in primary human hepatocytes. It counts as cell-based. As to the method: as §1, §2, §3, §4
(Tetrazolium assays rely on reduction of a dye to a coloured formazan, in cell work by metabolically active cells.)

The test system of data set [3] is HBV (HepG2 AD38 genotype D). As to the kind of experiment: Combination of Compound 1 with tenofovir in HBV-infected primary human hepatocytes (MacSynergy II). It counts as cell-based, hepatitis B virus. To be noted: summary of studies. On the procedure: In two sets of experiments, the effect of combining Compound 1 with tenofovir was studied. Effects of the drug combination were calculated based on the activity of the two compounds when tested alone. The expected additive antiviral protection (based on the dose response curves of the individual agents used alone) was subtracted from the experimentally determined antiviral activity at each combination concentration resulting in a positive value (synergy), a negative value (antagonism), or zero (additivity). […] The results of the combination assays were expressed as a synergy volume μM2% calculated at the 95% confidence interval using the MacSynergy II template.
For these studies, synergy was defined as drug combinations yielding synergy volumes greater than 50 μM2%. Slightly synergistic activity and highly synergistic activity have been defined as yielding synergy volumes of […] and >100 μM2%, respectively.
Synergy volumes between −50 and 50 μM2% were considered additive and synergy volumes less than −50 μM2% were considered antagonistic.

Where two headings read alike, the source gives them in different places. Marks after values point to notes of the source that are not given here.

Turning to `CCCCC1CN(c2ccccc2)c2cc(SC)c(O/C=C(\F)C(=O)O)cc2S(=O)(=O)N1C` (stereo not shown) [Compound 1, (Z)-3-((3-butyl-2-methyl-7-(methylthio)-1,1-dioxido-5-phenyl-2,3,4,5-tetrahydro-1,2,5-benzothiadiazepin-8-yl)oxy)-2-fluoroacrylic acid], the “serum HBV DNA compared to controls” value with HBV genotype C (30 mg/kg, Day 7) is listed as “lower”. Moreover, the “serum HBV DNA levels” value with HBV genotype C (10 mg/kg p.o. once daily Day 0-14, Day 0 (pre-dose)) was 4.0 × 10^4; in the data set with HBV genotype C (10 mg/kg p.o. once daily Day 0-14, Day 7), 1.4 × 10^5; in the data set on HBV genotype C (10 mg/kg p.o. once daily Day 0-14, Day 14), 8.5 × 10^5; with HBV genotype C (10 mg/kg p.o. once daily Day 0-14, Day 21) it was 1.3 × 10^6; in the data set with HBV genotype C (10 mg/kg p.o. once daily Day 0-14, Day 28), 8.5 × 10^6; with HBV genotype C (10 mg/kg p.o. once daily Day 0-14, Day 35), 2.7 × 10^7*. Also, the “serum HBV DNA levels” value in the data set with HBV genotype C (10 mg/kg p.o. once daily Day 0-14, Day 42) is recorded as 1.2 × 10^8*; in the data set on HBV genotype C (30 mg/kg p.o. once daily Day 0-14, Day 0 (pre-dose)) it was 4.0 × 10^4; with HBV genotype C (30 mg/kg p.o. once daily Day 0-14, Day 7), 6.1 × 10^4; in the data set on HBV genotype C (30 mg/kg p.o. once daily Day 0-14, Day 14), 1.9 × 10^5; with HBV genotype C (30 mg/kg p.o. once daily Day 0-14, Day 21), 3.1 × 10^5; with HBV genotype C (30 mg/kg p.o. once daily Day 0-14, Day 28), 2.7 × 10^6. For the same compound, the “serum HBV DNA levels” value in the data set with HBV genotype C (30 mg/kg p.o. once daily Day 0-14, Day 35) was 1.1 × 10^7; in the data set with HBV genotype C (30 mg/kg p.o. once daily Day 0-14, Day 42), 5.4 × 10^7. Also, in the data set with HBV genotype C (oral dosing before HBV infection), the “effect against HBV genotype C infection in PXB-mice” value is given as “prophylactic effects”. The CC50 at 10 days in data set [1] (Study #01, XTT, PHH) was more than 1000 nM; in data set [1] (Study #02) it was more than 200 nM; in data set [1] (Study #03), more than 50 nM. The same compound returned a TC50 in data set [2] (Study #01, 18 h post-infection section) of more than 1000 nM. Moreover, the “effect on cell viability” value in data set [2] (any concentration tested (up to 100 μmol/L)) was “did not affect cell viability”. For the same compound, the “antiviral effect when given together with tenofovir disoproxil fumarate” value in data set [3] was “additive”.

Source of the values: US20230398125A1, “TREATING HEPATITIS” (Albireo AB, priority 2022, published 2023).
